Data: BindingDB's records for doi:10.1021/acs.jmedchem.8b00170 (The University of Queensland, 2018)

Molecular target: Melanocortin receptor 5 (Homo sapiens, UniProt P33032)
Assay: Displacement of [125I]-NDP-alpha-MSH from human MC5R LBD expressed in HEK293 cell membranes incubated for 16 to 23 hrs in dark by scintillation proximity assay

Melanocortin receptor 5, sequence (P33032 whole entry, the tested form may be a part): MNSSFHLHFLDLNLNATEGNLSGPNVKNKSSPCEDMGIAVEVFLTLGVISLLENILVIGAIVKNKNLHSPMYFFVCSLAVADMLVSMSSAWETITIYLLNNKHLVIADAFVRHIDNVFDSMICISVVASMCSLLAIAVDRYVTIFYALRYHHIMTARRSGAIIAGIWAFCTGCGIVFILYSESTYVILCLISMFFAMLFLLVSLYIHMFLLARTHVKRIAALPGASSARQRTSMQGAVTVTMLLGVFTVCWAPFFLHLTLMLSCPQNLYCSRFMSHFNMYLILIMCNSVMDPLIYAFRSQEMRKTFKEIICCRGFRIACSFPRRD

## CC[C@H](C)[C@@H]1NC(=O)[C@@H]2CCCN2C(=O)[C@@H]2CCCN2C(=O)[C@H]([C@@H](C)CC)NC(=O)[C@H](CO)NC(=O)[C@H](C)NC(=O)[C@H]([C@@H](C)O)NC(=O)[C@@H]2CSSC[C@H](NC1=O)C(=O)N[C@@H](Cc1c[nH]cn1)C(=O)N[C@H](Cc1ccccc1)C(=O)N(C)[C@@H](CCCNC(=N)N)C(=O)N(C)[C@@H](Cc1c[nH]c3ccccc13)C(=O)N[C@@H](CCCNC(=N)N)C(=O)N2
  IC50: 813 nM
